The target of assay [1] is Gal-3 (Homo sapiens, UniProt P17931). The experiment in a line: Microscale thermophoresis (MST) binding of t-PA peptides to galectin-3. Conditions: for pKd: MST, human galectin; for Fold diff.: versus rh t-PA protein. As to the method: (§1) To investigate the binding efficiency of the short t-PA-ligands [10 to 29-AA-long peptides fluorescein or rhodamine-labelled] to galectin-1, we applied the microscale thermophoresis (MST) technology which allows quantitative analysis of protein interactions in solutions. By using MST, individual affinity constants between the different t-PA peptides and galectins (Gal-1, -3, -4) previously characterized to be over-expressed in PDAC were determined and compared to the recombinant human t-PA protein (rh t-PA) as presented in Table 2.
(§2) In order to investigate the binding properties of the modified t-PA-peptides [10-29 AA-long fluorescence-labeled peptides] as ligands to galectins, the microscale thermophoresis (MST) (Monolith NT.115 MST instrument, NanoTemper Technologies GmbH, Munich Germany) technology was employed. MST allows a quantitative analysis of protein interactions in solution and is based on the directed motion of molecules in temperature gradients generated locally by an infrared laser, whereas the molecular mobility in the temperature gradient is analyzed via fluorescence. MST is highly sensitive to all types of binding-induced changes of molecular properties like protein size, charge, hydration shell or conformation. The binding modes such as dimerization, cooperativity, and competition are quantifiable and adaptable to diverse requirements of different biomolecules. Therefore, MST turned out as an ideal method for the interaction studies of t-PA and t-PA-derived peptides with galectins.
In general terms: Microscale thermophoresis detects binding through changes in fluorescence in a small temperature gradient.

The target in assay [2] is Gal-1 (Homo sapiens, UniProt P09382). The experiment in a line: Microscale thermophoresis (MST) binding of t-PA peptides to galectin-1. Conditions: for pKd: MST, human galectin; for Fold diff.: versus rh t-PA protein. As to the method: as §1, §2
The target in assay [3] is T1, Gal-4 (Homo sapiens, UniProt P56470).
T1 sequence (P56470 1-323): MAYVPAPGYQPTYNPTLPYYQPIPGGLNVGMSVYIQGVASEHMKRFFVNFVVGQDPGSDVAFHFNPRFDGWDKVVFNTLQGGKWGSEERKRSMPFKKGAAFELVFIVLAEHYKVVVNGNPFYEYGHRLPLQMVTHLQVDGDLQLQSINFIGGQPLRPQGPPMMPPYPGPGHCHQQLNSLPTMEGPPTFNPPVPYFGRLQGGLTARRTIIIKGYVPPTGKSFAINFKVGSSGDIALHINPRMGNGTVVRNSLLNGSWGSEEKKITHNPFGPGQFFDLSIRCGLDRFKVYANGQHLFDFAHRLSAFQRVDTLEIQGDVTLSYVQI
In words: Microscale thermophoresis (MST) binding of t-PA peptides to galectin-4. Conditions: for pKd: MST, human galectin; for Fold diff.: versus rh t-PA protein. How it is done: as §1, §2

The subject of assay [4] is Su.86.86. The experiment in a line: Flow cytometry, binding of peptide/NPs to Su.86.86 cells. It counts as cell-based, human. As to the method: (§3) With the first flow cytometry experiments we analyzed the nanoparticle-core (Core CAN-maghemite (Ce-Fe2O3) and the t-PA-peptide1-lactose (t-PApep1lac) linked to the core. This was to determine whether the fluorescein-labelled t-PA-peptides, covalently linked to NPs, bind to Panc-1 and Su86.86 cells and if the cells are able to internalize the NPs. In a parallel set of experiments the binding of the t-PA-peptide alone (without linkage to NPs) to the pancreatic cancer cells was assessed. For the experimental set-up a concentration of t-PA peptide of 1.25 µM was applied and the cells were exposed to the NPs with and without peptides for different incubation periods of 2, 6, 12 and 24 h.
(§4) Flow cytometry (fluorescent-activated cell sorting/FACS) analysis was used to determine the binding of fluorescein-labeled t-PA-pep1Lac and t-PApep1-vectorized nanoparticles (CAN-Mag@PNPs-tPApep1Lac and CAN-Mag@PNPs-PEG-REGAcp-PEG/tPA-pep1Lac) on the surfaces of Panc-1 and SU.86.86 cells. Additional FACS analyses were performed to monitor concentration and time-dependent binding efficiency and changes caused by addition of competitors (galactose, lactose) or in the presence of active MMP-9, which cleaves the REGAcp sequence. Deshielding of CAN-Mag@PNPs-PEG-REGAcp-PEG/tPA-pep1Lac was carried out by pre-activated MMP-9 (20 µM proMMP-9 and 200 nM of catalytic domain cdMMP-3 in 100 mM Tris, 100 mM NaCl, 10 mM CaCl2, pH 7.4 for 2 h at 37 °C). The active MMP-9 (50 µl, 10 µM) was incubated in the presence of 450 µl NPs and subsequently added to cells. Nanoparticle-exposed cell monolayers (of 2 × 10^5 cells/2 ml medium in 6 well plates), with or without treatment, were harvested 2, 12, 24 h post-exposure using 1 mM EDTA–phosphate-buffered saline (PBS) detachment buffer, (Miltenyi GmbH, Bergisch Gladbach, Germany), washed 3 times in PBS, incubated for 45 min on ice and subsequently subjected to analysis in a BD™ LSR II flow cytometer and Software Program: BD FACSDiva 7.0 (Becton–Dickinson,)
In general terms: Flow cytometry measures light scatter and fluorescence of single cells or particles in a stream.

In assay [5] the test system is Panc-1. In words: Flow cytometry, binding of peptide/NPs to Panc-1 cells. It counts as cell-based, human. As to the method: as §3, §4

pKd: −log10 of the molar value. Residues, ends and D or L forms follow the SMILES beside them. *: point of attachment. 5FAM = O=C1OC2(c3ccc(O)cc3Oc3cc(O)ccc32)c2ccc(C(=O)*)cc21

What is called pKd is the negative decadic logarithm of the Kd, by convention in mol/L.

Chain of Gal-3 (P17931 whole entry, the tested form may be a part): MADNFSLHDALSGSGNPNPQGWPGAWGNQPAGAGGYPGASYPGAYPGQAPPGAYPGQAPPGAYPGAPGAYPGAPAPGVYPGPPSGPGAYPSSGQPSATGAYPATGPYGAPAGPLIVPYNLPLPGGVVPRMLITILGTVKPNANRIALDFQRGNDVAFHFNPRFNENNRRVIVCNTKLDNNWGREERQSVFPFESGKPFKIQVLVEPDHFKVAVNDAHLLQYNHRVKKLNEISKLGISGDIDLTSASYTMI
Chain of Gal-1 (P09382 whole entry): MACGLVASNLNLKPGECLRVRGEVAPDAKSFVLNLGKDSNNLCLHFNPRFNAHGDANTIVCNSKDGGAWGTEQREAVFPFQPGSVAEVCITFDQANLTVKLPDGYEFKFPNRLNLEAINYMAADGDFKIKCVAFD

For the compound `CC(C)C[C@H](NC(=O)[C@H](C)NC(=O)[C@H](CO)NC(=O)[C@H](CO)NC(=O)[C@H](CC(N)=O)NC(=O)[C@H](Cc1c[nH]c2ccccc12)NC(=O)[C@H](CC(N)=O)NC(=O)[C@@H](NC(=O)[C@H](CS)NC(=O)[C@H](CCC(=O)O)NC(=O)[C@H](C)NC(=O)CNC(=O)[C@H](CO)NC(=O)[C@H](CCC(=O)O)NC(=O)[C@H](C)NC(=O)[C@@H](NC(=O)[C@H](CO)NC(=O)[C@H](Cc1c[nH]c2ccccc12)NC(=O)[C@@H](NC(=O)CNC(=O)c1ccc2c(c1)C(=O)OC21c2ccc(O)cc2Oc2cc(O)ccc21)[C@@H](C)O)[C@@H](C)O)[C@@H](C)O)C(=O)N[C@@H](C)C(=O)N[C@@H](CCC(N)=O)C(=O)N[C@@H](CCCCN)C(=O)N1CCC[C@H]1C(=O)N[C@@H](Cc1ccc(O)cc1)C(=O)N[C@@H](CO)C(=O)NCC(=O)N[C@@H](CCCNC(=N)N)C(=O)O` [t-PA-pep-1] (5FAM-GTWSTAESGAECTNWNSSALAQKPYSGR-OH), the pKd in assay [1] (N-Fluo. labelled ligand) was 3.57; in assay [2] (N-Fluo. labelled ligand) it was 3.85; in assay [3] (N-Fluo. labelled ligand), 4.47. Also, the Fold diff. in assay [1] (N-Fluo. labelled ligand) is −35.4; in assay [2] (N-Fluo. labelled ligand) it was −28.7; in assay [3] (N-Fluo. labelled ligand) it was 1.5.

For the compound `CC(C)C[C@H](NC(=O)[C@H](C)NC(=O)[C@H](CO)NC(=O)[C@H](CO)NC(=O)[C@H](CO[C@@H]1O[C@H](CO)[C@@H](O[C@@H]2O[C@H](CO)[C@H](O)[C@H](O)[C@H]2O)[C@H](O)[C@H]1O)NC(=O)[C@H](Cc1c[nH]c2ccccc12)NC(=O)[C@H](CC(N)=O)NC(=O)[C@@H](NC(=O)[C@H](CS)NC(=O)[C@H](CCC(=O)O)NC(=O)[C@H](C)NC(=O)CNC(=O)[C@H](CO)NC(=O)[C@H](CCC(=O)O)NC(=O)[C@H](C)NC(=O)[C@@H](NC(=O)[C@H](CO)NC(=O)[C@H](Cc1c[nH]c2ccccc12)NC(=O)[C@@H](NC(=O)CN)[C@@H](C)O)[C@@H](C)O)[C@@H](C)O)C(=O)N[C@@H](C)C(=O)N[C@@H](CCC(N)=O)C(=O)N[C@@H](CCCCN)C(=O)N1CCC[C@H]1C(=O)N[C@@H](Cc1ccc(O)cc1)C(=O)N[C@@H](CO)C(=O)NCC(=O)N[C@@H](CCCNC(=N)N)C(=O)N[C@@H](CCCCNC(=O)c1ccc2c(c1)C(=O)OC21c2ccc(O)cc2Oc2cc(O)ccc21)C(=O)O` [t-PA-pep-1lac], the pKd in assay [1] (C-Fluo. labelled ligand) is 6.14; in assay [2] (C-Fluo. labelled ligand), 6.70; in assay [2] (N-Fluo. labelled ligand), 6.54; in assay [3] (C-Fluo. labelled ligand), 4.90. The Fold diff. in assay [1] (C-Fluo. labelled ligand) is on record as 10.4; in assay [2] (C-Fluo. labelled ligand) it was 25; in assay [2] (N-Fluo. labelled ligand), 17; in assay [3] (C-Fluo. labelled ligand), 4.03. The “Percentage of cells labeled with nanoparticles” value turned out to be 25.7% in assay [4] (Su.86.86, 2 h incubation); 45.8% in assay [4] (Su.86.86, 12 h incubation); 36.6% in assay [4] (Su.86.86, 24 h incubation); 2.6% in assay [5] (Panc-1, 2 h incubation); 87.6% in assay [5] (Panc-1, 12 h incubation); 86.3% in assay [5] (Panc-1, 24 h incubation).

As for “rh t-PA protein: recombinant human t-PA protein [reference compound]”, the pKd in assay [1] (N-Fluo. labelled ligand) was 5.11; in assay [2] (N-Fluo. labelled ligand) it was 5.31; in assay [3] (N-Fluo. labelled ligand) it was 4.29. In addition, the Fold diff. in assay [1] (N-Fluo. labelled ligand), in assay [2] (N-Fluo. labelled ligand) and in assay [3] (N-Fluo. labelled ligand) was 1 each time.

The values above are taken from article PMC5168863, “Synthesis and functionalization of protease-activated nanoparticles with tissue plasminogen activator peptides as targeting moiety and diagnostic tool for pancreatic cancer” (Journal of Nanobiotechnology, 2016).
